This series is described as follows: Metabolic stability in human liver S9 fraction. It counts as in vitro ADME. The conditions noted are these: pH 7.4, 1 μM compound, 37 °C. As to the method:
Human liver S9 fraction (Sigma-Aldrich, St. Louis, MO, USA) was used. All incubations were performed in duplicate in a thermoblock (Dlab dry bath HB 120-S) at 37 °C. The incubation mixtures contained 1 μM compound with 0.1% DMSO used as a vehicle, human liver S9 fraction (0.3 mg of protein per mL), 5 mM taurine, 5 mM glycine, 5 mM glucose 6-phosphate, 5 mM GSH, 1 mM NADPH, 1 mM ATP, 0.4 mM CoA, 0.4 mM UDPGA, 0.1 mM PAPS, and 0.4 U·mL^−1 glucose 6-phosphate dehydrogenase. All the cofactors were dissolved in a 50 mM potassium phosphate buffer (pH 7.4), containing 5 mM MgCl2, for a final volume of 0.25 mL. Aliquots of 25 µL were removed at 0, 5, 15, 30, 45, 60, and 90 min after S9 addition, and the reaction was stopped by adding 100 μL of ice-cold MeOH. The samples were centrifuged for 10 min at 10,000 rpm, and the supernatants were transferred into vials for LC-MS/MS analysis. The slope of the linear regression of the curve obtained by reporting the natural logarithm of compound area versus incubation time (−k) was used in the conversion to in vitro t1/2 values, calculated as t1/2 = −ln(2)/k. In vitro intrinsic clearance (Clint expressed as μL/min/mg) was obtained by first calculating V using the formula: V = volume of reaction (μL)/protein of liver microsomes (mg); intrinsic clearance was then calculated as: Clint = (V × ln2)/t1/2.

As a reminder, the half-life is how long it takes for the measured level to halve. As usually defined, the microsomal CLint is the rate of metabolic loss divided by the concentration. `OCc1ccc(CN2CCC(c3nc(-c4ccc5ccccc5c4)no3)CC2)cc1` [Compound 11, 5-[1-(4-(Hydroxymethyl)benzyl)piperidin-4-yl]-3-(naphthalen-2-yl)-1,2,4-oxadiazole] showed a half-life at 1 µM of 3.4 h and a microsomal CLint at 1 µM of 11.3 µL/min/mg.
In the same order, the values of `CCCCCN1CCC(c2nc(-c3ccc4ccccc4c3)no2)CC1` [Compound 5, 3-(Naphthalen-2-yl)-5-(1-pentylpiperidin-4-yl)-1,2,4-oxadiazole] are 1.15 h and 33.7 µL/min/mg.

The values above are taken from paper PMC10057480, “Expanding the Library of 1,2,4-Oxadiazole Derivatives: Discovery of New Farnesoid X Receptor (FXR) Antagonists/Pregnane X Receptor (PXR) Agonists” (Molecules, 2023).
